Laboratory results reported in PubChem BioAssay (NCI).
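Method: 48-hour compound exposure of cells in 96-well plates, five concentrations, linear interpolation of endpoints. TGI: total growth inhibition.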

Tests used:
Experiment in all cases: NCI tumour cell line growth inhibition, 48 h
786-0 renal = test system: 786-0 renal
A498 renal = test system: A498 renal
ACHN renal = test system: ACHN renal
BT-549 breast = test system: BT-549 breast
CAKI-1 renal = test system: CAKI-1 renal
CCRF-CEM leukemia = test system: CCRF-CEM leukemia
COLO 205 colon = test system: COLO 205 colon
DU-145 prostate = test system: DU-145 prostate
EKVX NSCLC = test system: EKVX NSCLC
HCC-2998 colon = test system: HCC-2998 colon
HCT-116 colon = test system: HCT-116 colon
HCT-15 colon = test system: HCT-15 colon
HL-60(TB) leukemia = test system: HL-60(TB) leukemia
HOP-62 NSCLC = test system: HOP-62 NSCLC
HOP-92 NSCLC = test system: HOP-92 NSCLC
HS 578T breast = test system: HS 578T breast
HT29 colon = test system: HT29 colon
IGROV1 ovarian = test system: IGROV1 ovarian
K-562 leukemia = test system: K-562 leukemia
KM12 colon = test system: KM12 colon
LOX IMVI melanoma = test system: LOX IMVI melanoma
M14 melanoma = test system: M14 melanoma
MCF7 breast = test system: MCF7 breast
MDA-MB-231 breast = test system: MDA-MB-231 breast
MDA-MB-435 = test system: MDA-MB-435
MOLT-4 leukemia = test system: MOLT-4 leukemia
NCI-H226 lung = test system: NCI-H226 lung
NCI-H23 lung = test system: NCI-H23 lung
NCI-H460 lung = test system: NCI-H460 lung
NCI/ADR-RES ovarian = test system: NCI/ADR-RES ovarian
OVCAR-4 ovarian = test system: OVCAR-4 ovarian
OVCAR-8 ovarian = test system: OVCAR-8 ovarian
PC-3 prostate = test system: PC-3 prostate
RPMI-8226 leukemia = test system: RPMI-8226 leukemia
RXF 393 renal = test system: RXF 393 renal
SF-268 CNS = test system: SF-268 CNS
SF-295 CNS = test system: SF-295 CNS
SF-539 CNS = test system: SF-539 CNS
SK-MEL-2 melanoma = test system: SK-MEL-2 melanoma
SK-MEL-28 melanoma = test system: SK-MEL-28 melanoma
SK-MEL-5 melanoma = test system: SK-MEL-5 melanoma
SK-OV-3 ovarian = test system: SK-OV-3 ovarian
SNB-19 CNS = test system: SNB-19 CNS
SNB-75 CNS = test system: SNB-75 CNS
SR leukemia = test system: SR leukemia
SW-620 colon = test system: SW-620 colon
T-47D breast = test system: T-47D breast
TK-10 renal = test system: TK-10 renal
U251 CNS = test system: U251 CNS
UACC-257 melanoma = test system: UACC-257 melanoma
UACC-62 melanoma = test system: UACC-62 melanoma
UO-31 renal = test system: UO-31 renal

O=c1[nH]c2ccc(C(F)(F)F)cc2nc1Cc1ccccc1
TGI (786-0 renal): > 100 µM | TGI (A498 renal): 66.9 µM | TGI (ACHN renal): 88.4 µM | TGI (BT-549 breast): 69.4 µM | TGI (CAKI-1 renal): > 100 µM | TGI (CCRF-CEM leukemia): > 100 µM | TGI (COLO 205 colon): 40.7 µM | TGI (DU-145 prostate): > 100 µM | TGI (EKVX NSCLC): > 100 µM | TGI (HCC-2998 colon): 82.6 µM | TGI (HCT-116 colon): > 100 µM | TGI (HCT-15 colon): > 100 µM | TGI (HL-60(TB) leukemia): > 100 µM | TGI (HOP-62 NSCLC): > 100 µM | TGI (HOP-92 NSCLC): 50.4 µM | TGI (HS 578T breast): 71.3 µM | TGI (HT29 colon): 68.7 µM | TGI (IGROV1 ovarian): > 100 µM | TGI (K-562 leukemia): > 100 µM | TGI (KM12 colon): > 100 µM | TGI (LOX IMVI melanoma): > 100 µM | TGI (M14 melanoma): 97.1 µM | TGI (MCF7 breast): > 100 µM | TGI (MDA-MB-231 breast): > 100 µM | TGI (MDA-MB-435): > 100 µM | TGI (MOLT-4 leukemia): 46 µM | TGI (NCI-H226 lung): 50.7 µM | TGI (NCI-H23 lung): 46.5 µM | TGI (NCI-H460 lung): > 100 µM | TGI (NCI/ADR-RES ovarian): 71.2 µM | TGI (OVCAR-4 ovarian): > 100 µM | TGI (OVCAR-8 ovarian): > 100 µM | TGI (PC-3 prostate): 81.3 µM | TGI (RPMI-8226 leukemia): 87.6 µM | TGI (RXF 393 renal): 61.6 µM | TGI (SF-268 CNS): > 100 µM | TGI (SF-295 CNS): > 100 µM | TGI (SF-539 CNS): > 100 µM | TGI (SK-MEL-2 melanoma): 62.6 µM | TGI (SK-MEL-28 melanoma): > 100 µM | TGI (SK-MEL-5 melanoma): 60.2 µM | TGI (SK-OV-3 ovarian): > 100 µM | TGI (SNB-19 CNS): > 100 µM | TGI (SNB-75 CNS): > 100 µM | TGI (SR leukemia): > 100 µM | TGI (SW-620 colon): > 100 µM | TGI (T-47D breast): > 100 µM | TGI (TK-10 renal): > 100 µM | TGI (U251 CNS): > 100 µM | TGI (UACC-257 melanoma): > 100 µM | TGI (UACC-62 melanoma): > 100 µM | TGI (UO-31 renal): > 100 µM

NC(=O)c1c2c(n3ccccc13)C(=O)c1ccccc1C2=O
TGI (786-0 renal): > 100 µM | TGI (A498 renal): > 100 µM | TGI (ACHN renal): > 100 µM | TGI (BT-549 breast): > 100 µM | TGI (CAKI-1 renal): > 100 µM | TGI (CCRF-CEM leukemia): > 100 µM | TGI (COLO 205 colon): > 100 µM | TGI (DU-145 prostate): > 100 µM | TGI (EKVX NSCLC): > 100 µM | TGI (HCC-2998 colon): > 100 µM | TGI (HCT-116 colon): > 100 µM | TGI (HCT-15 colon): > 100 µM | TGI (HL-60(TB) leukemia): > 100 µM | TGI (HOP-62 NSCLC): > 100 µM | TGI (HOP-92 NSCLC): > 100 µM | TGI (HS 578T breast): > 100 µM | TGI (HT29 colon): > 100 µM | TGI (IGROV1 ovarian): > 100 µM | TGI (K-562 leukemia): > 100 µM | TGI (KM12 colon): > 100 µM | TGI (LOX IMVI melanoma): > 100 µM | TGI (M14 melanoma): > 100 µM | TGI (MCF7 breast): > 100 µM | TGI (MDA-MB-231 breast): 93 µM | TGI (MDA-MB-435): 44 µM | TGI (MOLT-4 leukemia): > 100 µM | TGI (NCI-H226 lung): > 100 µM | TGI (NCI-H23 lung): 36.4 µM | TGI (NCI-H460 lung): 82.5 µM | TGI (NCI/ADR-RES ovarian): > 100 µM | TGI (OVCAR-4 ovarian): > 100 µM | TGI (OVCAR-8 ovarian): > 100 µM | TGI (PC-3 prostate): > 100 µM | TGI (RPMI-8226 leukemia): > 100 µM | TGI (RXF 393 renal): > 100 µM | TGI (SF-268 CNS): > 100 µM | TGI (SF-295 CNS): > 100 µM | TGI (SF-539 CNS): > 100 µM | TGI (SK-MEL-2 melanoma): > 100 µM | TGI (SK-MEL-28 melanoma): > 100 µM | TGI (SK-MEL-5 melanoma): 37 µM | TGI (SK-OV-3 ovarian): > 100 µM | TGI (SNB-19 CNS): > 100 µM | TGI (SNB-75 CNS): > 100 µM | TGI (SR leukemia): > 100 µM | TGI (SW-620 colon): > 100 µM | TGI (T-47D breast): > 100 µM | TGI (TK-10 renal): > 100 µM | TGI (U251 CNS): > 100 µM | TGI (UACC-257 melanoma): > 100 µM | TGI (UACC-62 melanoma): > 100 µM | TGI (UO-31 renal): > 100 µM
